# In PubChem BioAssay (NCI):
# Values joined by “and” are separate entries in the source; they are usually repeats but may differ in a detail not shown here. Equal values may be shown once.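 Protocol summary: plate cells (96-well), add compound at 5 concentrations, incubate 48 h, interpolate endpoints linearly. The concentration for 50% growth inhibition is given as GI50. TGI: total growth inhibition.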
# Columns and labels:
# Assay in all cases: inhibition of tumour cell growth, NCI panel, 48 h
# SK-MEL-5 melanoma = tested on: SK-MEL-5 melanoma
# OVCAR-5 ovarian = tested on: OVCAR-5 ovarian
# T-47D breast = tested on: T-47D breast
# SF-539 CNS = tested on: SF-539 CNS
# M14 melanoma = tested on: M14 melanoma
# MOLT-4 leukemia = tested on: MOLT-4 leukemia
# SK-MEL-28 melanoma = tested on: SK-MEL-28 melanoma
# LOX IMVI melanoma = tested on: LOX IMVI melanoma
# K-562 leukemia = tested on: K-562 leukemia
# COLO 205 colon = tested on: COLO 205 colon
# HCC-2998 colon = tested on: HCC-2998 colon
# SF-295 CNS = tested on: SF-295 CNS
# UO-31 renal = tested on: UO-31 renal
# HT29 colon = tested on: HT29 colon
# NCI-H460 lung = tested on: NCI-H460 lung
# IGROV1 ovarian = tested on: IGROV1 ovarian
# SNB-75 CNS = tested on: SNB-75 CNS
# SK-MEL-2 melanoma = tested on: SK-MEL-2 melanoma
# 786-0 renal = tested on: 786-0 renal
# RPMI-8226 leukemia = tested on: RPMI-8226 leukemia
# HCT-15 colon = tested on: HCT-15 colon
# SR leukemia = tested on: SR leukemia
# MDA-MB-435 = tested on: MDA-MB-435
# NCI-H226 lung = tested on: NCI-H226 lung
# A549 NSCLC = tested on: A549 NSCLC
# ACHN renal = tested on: ACHN renal
# HS 578T breast = tested on: HS 578T breast
# NCI-H23 lung = tested on: NCI-H23 lung
# TK-10 renal = tested on: TK-10 renal
# OVCAR-4 ovarian = tested on: OVCAR-4 ovarian
# SN12C renal = tested on: SN12C renal
# BT-549 breast = tested on: BT-549 breast
# UACC-257 melanoma = tested on: UACC-257 melanoma
# OVCAR-3 ovarian = tested on: OVCAR-3 ovarian
# CAKI-1 renal = tested on: CAKI-1 renal
# MDA-MB-231 breast = tested on: MDA-MB-231 breast
# PC-3 prostate = tested on: PC-3 prostate
# EKVX NSCLC = tested on: EKVX NSCLC
# MCF7 breast = tested on: MCF7 breast
# HOP-62 NSCLC = tested on: HOP-62 NSCLC
# CCRF-CEM leukemia = tested on: CCRF-CEM leukemia
# SNB-19 CNS = tested on: SNB-19 CNS
# RXF 393 renal = tested on: RXF 393 renal
# HOP-92 NSCLC = tested on: HOP-92 NSCLC
# NCI-H522 lung = tested on: NCI-H522 lung
# SK-OV-3 ovarian = tested on: SK-OV-3 ovarian
# HL-60(TB) leukemia = tested on: HL-60(TB) leukemia
# A498 renal = tested on: A498 renal
# SW-620 colon = tested on: SW-620 colon
# NCI/ADR-RES ovarian = tested on: NCI/ADR-RES ovarian
# OVCAR-8 ovarian = tested on: OVCAR-8 ovarian
# U251 CNS = tested on: U251 CNS
# KM12 colon = tested on: KM12 colon
# HCT-116 colon = tested on: HCT-116 colon
# SF-268 CNS = tested on: SF-268 CNS
# DU-145 prostate = tested on: DU-145 prostate
# UACC-62 melanoma = tested on: UACC-62 melanoma
compound,measurement,setting,value
O=C(O)c1c(Cl)c(Cl)c(Cl)c(Cl)c1-c1c2cc(I)c(=O)c(I)c-2oc2c(I)c(O)c(I)cc12,GI50,SK-MEL-5 melanoma,36.3 µM
same,TGI,SK-MEL-5 melanoma,68.9 µM
same,GI50,OVCAR-5 ovarian,41.9 µM
same,TGI,OVCAR-5 ovarian,163 µM
same,GI50,T-47D breast,29.4 µM
same,TGI,T-47D breast,78.2 µM
same,GI50,SF-539 CNS,32.7 µM and 34.6 µM
same,TGI,SF-539 CNS,89.7 µM
same,GI50,M14 melanoma,58.7 µM
same,TGI,M14 melanoma,> 200 µM
same,GI50,MOLT-4 leukemia,40.8 µM
same,TGI,MOLT-4 leukemia,86.2 µM
same,GI50,SK-MEL-28 melanoma,55.9 µM and 32.9 µM
same,TGI,SK-MEL-28 melanoma,73 µM
same,GI50,LOX IMVI melanoma,19 µM and 34.7 µM
same,TGI,LOX IMVI melanoma,43.1 µM and 67.9 µM
same,GI50,K-562 leukemia,39.2 µM and 46 µM
same,TGI,K-562 leukemia,116 µM
same,GI50,COLO 205 colon,45.8 µM
same,TGI,COLO 205 colon,159 µM
same,GI50,HCC-2998 colon,36.5 µM
same,TGI,HCC-2998 colon,70.8 µM
same,GI50,SF-295 CNS,38.1 µM
same,TGI,SF-295 CNS,78.7 µM
same,GI50,UO-31 renal,43.5 µM
same,TGI,UO-31 renal,107 µM
same,GI50,HT29 colon,52.6 µM
same,TGI,HT29 colon,154 µM
same,GI50,NCI-H460 lung,58.8 µM
same,TGI,NCI-H460 lung,> 200 µM
same,GI50,IGROV1 ovarian,88.2 µM and 34.9 µM
same,TGI,IGROV1 ovarian,83.8 µM
same,GI50,SNB-75 CNS,32.1 µM and 34 µM
same,TGI,SNB-75 CNS,79.8 µM
same,GI50,SK-MEL-2 melanoma,81.4 µM and 37 µM
same,TGI,SK-MEL-2 melanoma,78.8 µM
same,GI50,786-0 renal,46.5 µM
same,TGI,786-0 renal,123 µM
same,GI50,RPMI-8226 leukemia,122 µM
same,TGI,RPMI-8226 leukemia,> 200 µM
same,GI50,HCT-15 colon,55.7 µM
same,TGI,HCT-15 colon,162 µM
same,GI50,SR leukemia,39.1 µM and 31.6 µM
same,TGI,SR leukemia,87.6 µM
same,GI50,MDA-MB-435,62.9 µM and 41.4 µM
same,TGI,MDA-MB-435,93 µM
same,GI50,NCI-H226 lung,79.7 µM and 38.8 µM
same,TGI,NCI-H226 lung,90.9 µM
same,GI50,A549 NSCLC,177 µM
same,TGI,A549 NSCLC,> 200 µM
same,GI50,ACHN renal,54.8 µM
same,TGI,ACHN renal,> 200 µM
same,GI50,HS 578T breast,35.7 µM and 33 µM
same,TGI,HS 578T breast,83.7 µM
same,GI50,NCI-H23 lung,47 µM
same,TGI,NCI-H23 lung,125 µM
same,GI50,TK-10 renal,59 µM
same,TGI,TK-10 renal,> 200 µM
same,GI50,OVCAR-4 ovarian,93.1 µM and 43.9 µM
same,TGI,OVCAR-4 ovarian,105 µM
same,GI50,SN12C renal,75.5 µM and 32.6 µM
same,TGI,SN12C renal,103 µM
same,GI50,BT-549 breast,26.9 µM and 35.9 µM
same,TGI,BT-549 breast,82.6 µM and 83.2 µM
same,GI50,UACC-257 melanoma,53.5 µM
same,TGI,UACC-257 melanoma,163 µM
same,GI50,OVCAR-3 ovarian,32.1 µM and 33 µM
same,TGI,OVCAR-3 ovarian,72.1 µM
same,GI50,CAKI-1 renal,39 µM
same,TGI,CAKI-1 renal,86.7 µM
same,GI50,MDA-MB-231 breast,22.5 µM and 26.7 µM
same,TGI,MDA-MB-231 breast,82.8 µM and 75.5 µM
same,GI50,PC-3 prostate,39.8 µM and 42.3 µM
same,TGI,PC-3 prostate,89.3 µM
same,GI50,EKVX NSCLC,63.5 µM
same,TGI,EKVX NSCLC,> 200 µM
same,GI50,MCF7 breast,83.5 µM
same,TGI,MCF7 breast,> 200 µM
same,GI50,HOP-62 NSCLC,80.7 µM and 31 µM
same,TGI,HOP-62 NSCLC,87.4 µM
same,GI50,CCRF-CEM leukemia,30.2 µM and 41.9 µM
same,TGI,CCRF-CEM leukemia,95.7 µM
same,GI50,SNB-19 CNS,38.2 µM and 28.6 µM
same,TGI,SNB-19 CNS,63.8 µM
same,GI50,RXF 393 renal,27.5 µM and 15 µM
same,TGI,RXF 393 renal,45.4 µM
same,GI50,HOP-92 NSCLC,19.3 µM and 29.7 µM
same,TGI,HOP-92 NSCLC,68 µM and 71.6 µM
same,GI50,NCI-H522 lung,26.6 µM and 39.4 µM
same,TGI,NCI-H522 lung,59.9 µM and 83.2 µM
same,GI50,SK-OV-3 ovarian,32.4 µM
same,TGI,SK-OV-3 ovarian,78.6 µM
same,GI50,HL-60(TB) leukemia,73 µM and 42.9 µM
same,TGI,HL-60(TB) leukemia,85.2 µM
same,GI50,A498 renal,29.5 µM and 26.1 µM
same,TGI,A498 renal,64.2 µM
same,GI50,SW-620 colon,74.4 µM and 37.6 µM
same,TGI,SW-620 colon,79.1 µM
same,GI50,NCI/ADR-RES ovarian,> 200 µM
same,TGI,NCI/ADR-RES ovarian,> 200 µM
same,GI50,OVCAR-8 ovarian,58.2 µM and 47.4 µM
same,TGI,OVCAR-8 ovarian,115 µM
same,GI50,U251 CNS,26.3 µM and 35.1 µM
same,TGI,U251 CNS,83.9 µM
same,GI50,KM12 colon,53.6 µM
same,TGI,KM12 colon,182 µM
same,GI50,HCT-116 colon,45.4 µM and 37.2 µM
same,TGI,HCT-116 colon,81.5 µM
same,GI50,SF-268 CNS,41.3 µM and 36.8 µM
same,TGI,SF-268 CNS,81.2 µM
same,GI50,DU-145 prostate,37.2 µM
same,TGI,DU-145 prostate,94.3 µM
same,GI50,UACC-62 melanoma,18.6 µM and 31.6 µM
same,TGI,UACC-62 melanoma,41.3 µM and 68.6 µM
